The record followed here is the NIST ThermoML archive (doi:10.1021/acs.jced.6b00290).

Each structure is given as a SMILES string. Numbers after ± are expanded uncertainties.

The data set in a line: refractive index (Na D-line) (dimensionless); wn = mass fraction of the nth substance listed. As to conditions: 333.15 K, 100 kPa, Liquid, Standard Abbe refractometry.

Consider `[Br-].[Br-].[Mg+2]` [magnesium bromide (MgBr2)] + O, for which the refractive index (usually the speed of light in vacuum divided by its phase velocity in the sample) (w1 = 0.5241) is 1.4594 ± 0.0004.
For `O=S(=O)([O-])[O-].[Mg+2]` [magnesium sulfate] + O, where the note is “w1 = 0.3525”, the refractive index stood at 1.3957 ± 0.0004.
